Where “and” joins values, the source holds several entries; their conditions need not be identical. Equal entries are not always repeated.
Assays:
[1] = target: T1, Ubiquitin-activating enzyme e1, putative (Leishmania donovani (strain BPK282A1), UniProt E9BSI1); experiment: Leishmania donovani Ubiquitin Activating Enzyme (LdE1); assay type: functional
T1 sequence (E9BSI1 whole entry): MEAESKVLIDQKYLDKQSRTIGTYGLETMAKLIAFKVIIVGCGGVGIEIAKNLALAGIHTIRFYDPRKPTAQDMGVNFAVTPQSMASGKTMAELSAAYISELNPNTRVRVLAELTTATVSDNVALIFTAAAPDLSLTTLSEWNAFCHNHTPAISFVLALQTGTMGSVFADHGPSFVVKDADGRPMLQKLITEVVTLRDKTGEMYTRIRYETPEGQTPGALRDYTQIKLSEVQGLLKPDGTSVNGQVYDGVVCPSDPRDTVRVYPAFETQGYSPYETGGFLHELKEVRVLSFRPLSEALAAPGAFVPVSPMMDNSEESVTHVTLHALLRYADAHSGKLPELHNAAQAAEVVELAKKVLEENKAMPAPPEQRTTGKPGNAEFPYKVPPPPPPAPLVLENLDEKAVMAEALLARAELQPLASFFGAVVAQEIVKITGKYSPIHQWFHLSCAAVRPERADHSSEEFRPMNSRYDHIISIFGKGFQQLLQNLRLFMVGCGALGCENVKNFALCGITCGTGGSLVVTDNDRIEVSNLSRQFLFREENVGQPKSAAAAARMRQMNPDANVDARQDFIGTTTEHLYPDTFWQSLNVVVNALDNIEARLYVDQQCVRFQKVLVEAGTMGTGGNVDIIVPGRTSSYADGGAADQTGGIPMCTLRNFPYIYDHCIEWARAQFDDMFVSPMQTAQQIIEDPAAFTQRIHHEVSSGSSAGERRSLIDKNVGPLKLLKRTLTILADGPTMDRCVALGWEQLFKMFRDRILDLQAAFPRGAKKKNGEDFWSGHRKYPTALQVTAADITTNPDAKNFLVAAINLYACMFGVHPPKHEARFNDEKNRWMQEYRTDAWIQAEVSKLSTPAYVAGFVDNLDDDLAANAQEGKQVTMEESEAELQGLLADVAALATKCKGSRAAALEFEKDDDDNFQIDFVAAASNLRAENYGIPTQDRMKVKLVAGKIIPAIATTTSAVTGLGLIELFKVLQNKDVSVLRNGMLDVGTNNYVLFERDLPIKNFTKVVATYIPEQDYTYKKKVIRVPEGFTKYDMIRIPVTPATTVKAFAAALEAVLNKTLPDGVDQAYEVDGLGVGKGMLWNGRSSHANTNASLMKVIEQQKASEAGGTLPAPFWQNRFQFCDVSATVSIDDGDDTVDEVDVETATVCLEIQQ

Plasmodium falciparum = experiment: Plasmodium falciparum sporozoite viability assay; assay type: functional, organism-based; details: for IC50: Plasmodium falciparum
[2] = tested on: Mycobacterium tuberculosis; experiment: Cornell M. t heat shock assay; assay type: functional, organism-based; details: Mycobacterium tuberculosis
[3] = target: T2, Coenzyme A biosynthesis bifunctional protein CoaBC (Mycobacterium tuberculosis (strain ATCC 25618 / H37Rv), UniProt P9WNZ1); experiment: Biomol Green assay for MtCoaBC inhibitor, OD650 read; assay type: functional
T2 sequence (P9WNZ1 whole entry): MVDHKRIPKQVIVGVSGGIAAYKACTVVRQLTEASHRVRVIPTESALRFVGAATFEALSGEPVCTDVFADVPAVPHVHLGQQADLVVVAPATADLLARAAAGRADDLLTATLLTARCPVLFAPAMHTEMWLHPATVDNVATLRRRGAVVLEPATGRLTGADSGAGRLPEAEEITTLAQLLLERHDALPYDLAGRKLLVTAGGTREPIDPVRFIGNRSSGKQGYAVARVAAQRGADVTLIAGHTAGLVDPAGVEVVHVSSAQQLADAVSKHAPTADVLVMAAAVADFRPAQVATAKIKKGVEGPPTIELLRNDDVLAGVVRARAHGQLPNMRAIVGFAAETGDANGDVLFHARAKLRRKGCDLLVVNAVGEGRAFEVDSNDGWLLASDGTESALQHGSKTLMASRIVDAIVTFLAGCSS

## CC(Cn1cccn1)NCc1nc(-c2ccco2)no1 (stereo unspecified)
[1]
  IC50: > 100 µM

## CSC(C)C(=O)N1CCCN(Cc2nccn2C)CC1 (stereo unspecified)
[1]
  IC50: > 100 µM

## COCc1nc2cc(NCc3csc(C)n3)ccc2o1
[1]
  IC50: > 100 µM

## CC(Cn1cccn1)NCc1nc(-c2cccc(Cl)c2)no1 (stereo unspecified)
[1]
  IC50: > 100 µM

## COc1ccc(OC)c(CNCc2ccnc(N3CCCCC3)c2)c1
[1]
  IC50: > 100 µM

## Cc1nc(C(=O)N2C[C@@H]3COC[C@]3(COCc3cccnc3)C2)cs1
[1]
  IC50: > 100 µM

## CC(OCC1CC1)C(=O)N1CCCN(Cc2nccn2C)CC1 (stereo unspecified)
[1]
  IC50: > 100 µM

## CC(C)c1nc2n(n1)CC(NCc1nnc(-c3ccco3)o1)CC2 (stereo unspecified)
[1]
  IC50: > 100 µM

## CCCn1nc2c(cc1=O)CN(Cc1nnc(C3CC3)o1)CC2
[1]
  IC50: > 100 µM

## O=C(CCS(=O)(=O)C1CCCC1)NCc1ccccc1Cn1cncn1
[1]
  IC50: > 100 µM

## Cc1csc(NC(=O)c2cnc(C3CCCN3)cn2)n1.Cl (stereo unspecified)
Plasmodium falciparum
  pIC50: 7.11
  IC50: 0.153 µM
[2]
  IC50: > 100 µM

## CCn1nc2c(cc1=O)CN(Cc1coc(-c3ccccc3)n1)CC2
[1]
  IC50: > 100 µM

## CCC1CCCCN1Cc1ncc(C(C)(C)C)o1 (stereo unspecified)
[1]
  IC50: > 100 µM

## Cc1ccc(C(=O)N2C[C@@H]3COC[C@]3(COCc3cccnc3)C2)cn1
[1]
  IC50: > 100 µM

## CC[C@H]1N(CC2CCC2)CCC[C@]12CCC(=O)N2Cc1ccncc1
[1]
  IC50: > 100 µM

## CCCN1CCC[C@]2(CCC(=O)N2Cc2ccncc2)[C@H]1CC
[1]
  IC50: > 100 µM

## CS(=O)(=O)c1ccc(CNC(=O)Nc2cn[nH]c2)cc1
[1]
  IC50: > 100 µM

## CC(Cn1cccn1)NCc1nc(-c2cccs2)no1 (stereo unspecified)
[1]
  IC50: > 100 µM

## CCc1nc2n(n1)CC(NCc1nnc(C(C)C)o1)CC2 (stereo unspecified)
[1]
  IC50: > 100 µM

## CC(Cn1cccn1)NCCCc1nc(-c2cccs2)no1 (stereo unspecified)
[1]
  IC50: > 100 µM

## Cc1nc(C)c(C(=O)NCCNc2ncccc2C#N)s1
[1]
  IC50: > 100 µM

## CN(C)c1ccc(C(=O)N2CCN(CC(C)(C)O)CC2)nn1
[1]
  IC50: > 100 µM

## CNS(=O)(=O)Cc1cccc(CNC(=O)Nc2cn[nH]c2)c1
[1]
  IC50: > 100 µM

## Cc1nc(C)n(CC2CCCN(Cc3ncc(C(C)(C)C)o3)C2)n1 (stereo unspecified)
[1]
  IC50: > 100 µM

## Cc1nc(C)n(CC2CCCCN2Cc2ncc(C(C)(C)C)o2)n1 (stereo unspecified)
[1]
  IC50: > 100 µM

## Cc1nc(C)n(CC2CCCCN2Cc2nnc(C3CC3)o2)n1 (stereo unspecified)
[1]
  IC50: > 100 µM

## CNS(=O)(=O)Cc1ccc(CNC(=O)Nc2cccnc2)cc1
[1]
  IC50: > 100 µM

## CCc1nc(C)c(C(=O)NCCNc2ncccc2C#N)s1
[1]
  IC50: > 100 µM

## CC(OCC1CC1)C(=O)N1CCCN(Cc2cnn(C)c2)CC1 (stereo unspecified)
[1]
  IC50: > 100 µM

## Cc1cccc(NC2CCN(C(=O)Nc3ccc(F)c(F)c3)CC2)n1
Plasmodium falciparum
  IC50: 7.62 µM
[2]
  IC50: > 49 µM

## COCCC(=O)N1C[C@@H]2COC[C@]2(COCc2cccnc2)C1
[1]
  IC50: > 100 µM

## CC(C)C(NC(=O)NCCNc1ncccn1)c1cccs1 (stereo unspecified)
[1]
  IC50: > 100 µM

## COCCNc1ccc(CNC(=O)Nc2cn[nH]c2)cc1
[1]
  IC50: > 100 µM

## CC(O)CN1CCN(C(=O)c2ccc(N(C)C)nn2)CC1 (stereo unspecified)
[1]
  IC50: > 100 µM

## CC(C)N1CCC(Cc2cncc(-c3cccc(C(=O)O)c3)n2)CC1
[1]
  IC50: > 100 µM

## CCc1nnc(CN2CCCCC2Cn2nc(C)nc2C)o1 (stereo unspecified)
[1]
  IC50: > 100 µM

## CC(C)N1CCC(Cc2cc(-c3cccc(C(=O)O)c3)ncn2)C1 (stereo unspecified)
[1]
  IC50: > 100 µM

## COc1ccc(CNCc2ccc(N3CCCCC3)nc2)cc1OC
[1]
  IC50: > 100 µM

## O=C(CC1CCCO1)NCc1ccccc1Cn1cncn1 (stereo unspecified)
[1]
  IC50: > 100 µM

## CC[C@H]1N(C)CCC[C@]12CCC(=O)N2Cc1ccncc1
[1]
  IC50: > 100 µM

## O=C(CCNC(=O)C1CCCC1)NCc1ccccc1Cn1ccnc1
[1]
  IC50: > 100 µM

## Cc1nc(C)n(CC2CCCN2Cc2ncc(C(C)(C)C)o2)n1 (stereo unspecified)
[1]
  IC50: > 100 µM

## CC(C)c1nc2cc(NC(=O)c3n[nH]c4c3CCC4)ccc2n1C
Plasmodium falciparum
  pIC50: 6.833 and 6.465
[3]
  IC50: > 30.2 µM

## Cn1cc(C(=O)N2C[C@@H]3COC[C@]3(COCc3cccnc3)C2)cn1
[1]
  IC50: > 100 µM

## CN(C)c1ccc(C(=O)N2CCN(CC(O)C(C)(C)C)CC2)nn1 (stereo unspecified)
[1]
  IC50: > 100 µM

## COc1ccc(CNCc2ccnc(N3CCCC3)c2)c(OC)c1
[1]
  IC50: > 100 µM

## CC(C)C(NC(=O)Nc1ccccn1)c1cccs1 (stereo unspecified)
[1]
  IC50: > 100 µM
